From patent publication EP2365091A1, “Method of screening for HtrA protease inhibitors useful for prophylaxis and therapy of a bacterial infection” (Paul-Ehrlich-Institut, priority 2010, dated 2011)
Entries after “also recorded” stand apart in the source; their conditions may differ.

Key:
HtrA = experiment: In vitro cleavage of recombinant E-Cadherin by HtrA (Western blot); assay type: biochemical, Helicobacter pylori; details: 100 ng recombinant E-Cadherin, 100 ng/µl HtrA, 16 h
Description: (§1) For in vitro cleavage studies, recombinant E-Cadherin, EGFR and JAM chimera, IgA or Casein, (R&D Systems, Wiesbaden, Germany) were incubated with HtrA^wt, HtrA^S205A or MMP7 in 50 mM HEPES (pH 7.4) at 37°C for 16 h. Where indicated, HHI or MMP inhibitor II were added. Reactions were stopped by boiling in Laemmli buffer, followed by 8% SDS-PAGE and Western blotting.

interleukin-8 (IL-8) = experiment: Interleukin-8 (IL-8) ELISA; assay type: cell-based, human; details: MKN-28, Hp 8 h, 16 h and 36 h, 100 µM HHI (Fig. 12B)
Description: Determination of IL-8 release was performed by applying a commercially available IL-8 specific ELISA assay system (Bender Medsystems, eBioscience Inc., San Diegeo, CA, USA). In brief, MKN-28 cells were incubated with Hp 8-36 h. Cell culture supernatants were collected, centrifuged, and stored at -80°C for subsequent IL-8 quantification. The IL-8 release was determined as recommend by the manufacturer's instructions.

MCF-7 = experiment: In-situ immunofluorescence of E-Cadherin in Hp-infected cells; assay type: cell-based, human; details: MCF-7, Hp 16 h, 100 µM HHI (Fig. 5A)
Description: (§2) For immunofluorescence staining, cells were grown for 24 h on glass coverslips, then fixed (4% paraformaldehyde in PBS), and permeabilized (0.2% Triton X-100 in PBS). Immunostaining was performed using anti-E-Cadherin (cl. 36 detects the intracellular domain, BD Biosciences), anti-E-Cadherin (HecD-1 detects the extracellular domain), ZO-1 (Invitrogen), anti-CagA (Immunological and Biochemical Testsystems GmbH, Reutlingen, Germany), anti-β1-integrin and anti-Hp. Secondary antibodies were labeled with Alexa-488 or Alexa-546 (Invitrogen). Filamentous actin was detected with Alexa Fluor 546-conjugated phalloidin (Invitrogen). For nuclei staining, 4',6-diamin-2-phenylin-dol-dihydrochloride (DAPI, Roche) was used as recommended by the manufacturer's instructions. Samples were analyzed by confocal laser scanning microscopy using a Zeiss LSM 510 Meta confocal microscope. Images were further processed using Corel Photopaint.

CagA = CagA injection and phosphorylation in infected monolayers (Western blot); assay type: cell-based, Helicobacter pylori; details: MKN-28 monolayers
Description: Cells were harvested in lysis buffer (20 mM Tris-HCl, pH 7.5, 1 mM ETDA, 100 mM NaCl, 1% Triton X-100, 0.5 % sodium deoxycholate, 0.1% SDS, 1 x complete protease inhibitors (Roche, Basel, Switzerland), 1 mM Na3VO4, 1 mM sodium molybdate, 20 mM NaF, 10 mM sodium pyrophosphate, 20 mM β-glycerophosphate) and separated by SDS-PAGE. Proteins were transferred onto PVDF membranes, blocked with RotiBlock (Roth, Karlsruhe, Germany), and probed with anti-E-Cadherin cl. 36 (detects intracellular E-Cadherin domain). To detect CTF1 and CTF2 by Western blots an anti-E-Cadherin polyclonal antibody from Cell Signaling Technologies , Danvers, MA, USA] was used. Quantification of CTF and NTF fragments was performed using the Fusion FX-7 image analyzer and Bio-1D analysis software (Vilber Lourmat Deutschland GmbH, Eberhardzell, Germany). Monoclonal antibodies HecD1 and H-108 against the extracellular domain of E-Cadherin (NTF) were obtained from Calbiochem, Merck, Darmstadt, Germany and Santa Cruz, Santa Cruz, CA, USA, respectively. Expression of Occludin, ZO-1 (Invitrogen), JAM1, β-Catenin, p120^ctn (BD Biosciences, New Jersey, USA), ADAM10, EGFR (Santa Cruz), GAPDH (Abcam, Cambridge, UK), β-Actin (Sigma), CagA (Aalto Bio Reagents Ltd., Dublin, Ireland) was analyzed using specific antibodies. […]

MKN-28 cells [1] = experiment: Hp-induced ectopic E-Cadherin shedding in infected cells (Western blot of supernatants and lysates); assay type: cell-based, human; details: 100 µM HHI
Description: The human gastric adenocarcinoma cell line MKN-28 was grown in RPMI1640 medium (Biochrom, Berlin, Germany) and human breast cancer cells (MCF-7) in DMEM medium (Biochrom) containing 4 mM glutamine (Invitrogen, Karlsruhe, Germany]), and 10% FCS (Biowest, Nuaillé, France) in a humidified 5% CO2 (MKN-28) or 10% CO2 (MCF-7) atmosphere at 37°C. Cells were seeded in tissue culture plates 48 hours before infection and grown to confluence. 1-2 h hours prior to infection, medium was replaced by fresh serum-free media. Where indicated, cells were incubated with indicated concentrations of HHI or MMP inhibitor II (blocks MMP1, MMP3, MMP7 and MMP9) (Calbiochem, Merck , Darmstadt, Germany).
Hp strains Hp26695 and P12 were cultured on agar plates containing 10% horse serum under microaerophilic conditions at 37°C for 48 hours. For infection, bacteria were harvested in PBS Dulbecco's medium, pH 7.4, added to the host cells at a multiplicity of infection (MOI) of 50 or 100 for the indicated time periods and monitored using an inverse phase-contrast microscope (model TS 100, INTAS). To quantify bacteria translocating through cellular monolayers, MKN-28 cells were grown to confluence on filters prior to infection with Hp for 48 h. Translocating Hp were cultured and CFU were counted. All experiments were repeated 3-4 times. […]

TCF/LEF1 = experiment: TOPflash/FOPflash luciferase reporter gene experiment; assay type: cell-based, human; details: MKN-28, Hp 24 h, 50 µM HHI (Fig. 5C)
Description: MKN-28 cells were cultured in 24-well plates and grown to 60% confluence. Cells were transfected with 100 ng TOPflash or 100 ng FOPflash (Upstate, Millipore, Bad Schwalbach/Taunus, Germany) and 4 ng phRL Null. As a positive control, cells were co-transfected with 100 ng β-Catenin (β-Cat^S33A) or empty vector for 12 h using Gene Juice transfection reagent (Novagen, Merck, Darmstadt, Germany) as recommended by the manufacturer's instructions. Eighteen hours after transfection, cells were infected with Hp at an MOI of 50, or left untreated. In further approaches, cells were incubated with 50 ng/µl HtrA^wt or HtrA^S205A mutant. After 24 h, cells were harvested in 100 µl reporter lysis buffer (Promega) and luciferase activity was determined in a dual channel luminometer. Results were normalized for transfection efficiency of cotransfected renilla luciferase plasmid.

MMP-7 = biological target: T1, MMP-7 (Homo sapiens, UniProt P09237); experiment: In vitro cleavage of recombinant E-Cadherin by MMP-7 (Western blot); assay type: biochemical; details: 5 ng/µl MMP-7, 16 h, 100 µM HHI (Fig. 11E)
T1 sequence (P09237 95-267): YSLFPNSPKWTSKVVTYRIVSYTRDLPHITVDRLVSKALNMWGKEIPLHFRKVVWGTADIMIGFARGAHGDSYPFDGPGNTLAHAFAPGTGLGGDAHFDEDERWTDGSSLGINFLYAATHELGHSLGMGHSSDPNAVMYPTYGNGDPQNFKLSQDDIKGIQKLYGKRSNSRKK
Description: as §1

Hp [2] = experiment: Hp translocation through the intercellular space of confluent monolayers (confocal microscopy, filter CFU); assay type: cell-based, Helicobacter pylori
Description: Hp strains Hp26695 and P12 were cultured on agar plates containing 10% horse serum under microaerophilic conditions at 37°C for 48 hours. For infection, bacteria were harvested in PBS Dulbecco's medium, pH 7.4, added to the host cells at a multiplicity of infection (MOI) of 50 or 100 for the indicated time periods and monitored using an inverse phase-contrast microscope (model TS 100, INTAS). To quantify bacteria translocating through cellular monolayers, MKN-28 cells were grown to confluence on filters prior to infection with Hp for 48 h. Translocating Hp were cultured and CFU were counted. All experiments were repeated 3-4 times.
as §2, with “For nuclei staining, 4',6-diamin-2-phenylin-dol-dihydrochloride (DAPI, Roche) was used as recommended by the manufacturer's instructions.” left out, “Images were further processed using Corel Photopaint.” left out

MKN-28 cells [3] = experiment: Cell aggregation assay; assay type: cell-based, human; details: 50 ng/µl HtrAwt plus 100 µM HHI (Fig. 4E)
Description: For cell aggregation assays, 2 x 10^5 cells were trypsinized and seeded into BSA-coated 24-well plates, each well containing 500 µl of cell aggregation buffer (10 mM HEPES (pH 7.4), 150 mM NaCl, 0.7 mM CaCl2, 1% BSA, 0.01% trypsin). After stimulation at 37°C for 30 min on a rocking platform, cells were fixed in 500 µl of 4% paraformaldehyde for 20 min and observed using an inverse phase-contrast microscope.

Hp [4] = experiment: Hp adherence and viability, colony forming units after infection of MKN-28 cells; assay type: cell-based, Helicobacter pylori
Description: For secretome analysis, Hp was grown in protein-free liquid brain heart infusion (BHI) medium (Merck) supplemented with β-cyclodextrin for 48 hours (Bumann et al., 2002). Supernatants of Hp BHI cultures were sterilized by filtration. Lysates of Hp were obtained by sonication in PBS containing 0.1% Triton X-100. To quantify colony forming units (CFU) of Hp, cells were infected with Hp in the presence or absence of HHI. After 16-24 h cells were washed twice with PBS, harvested in BHI supplemented with β-cyclodextrin and seeded on Hp plates. After 72 h, colonies were counted.

MKN-28 cells [5] = experiment: Co-immunoprecipitation of β-Catenin and p120ctn in Hp-infected cells; assay type: cell-based, human; details: Hp 6 h, 100 µM HHI (Fig. 5B)
Description: Interaction between β-Catenin and p120^ctn was analyzed by co-immunoprecipitation studies. Cells were lysed and β-Catenin and p120^ctn were immunoprecipitated from cell lysates. Immobilized protein complexes were washed three times with lysis buffer, boiled in Laemmli buffer, separated by SDS-PAGE, and blotted on membranes.

β1-integrin = experiment: Confocal microscopy of phospho-CagA and β1-integrin co-localization; assay type: cell-based; details: Hp-infected cells, preincubation with 100 µM HHI (Fig. 7C)
Description: as §2

SMILES: CCOc1ccc2nc(NC(=O)CSc3nnc(-c4ccc(S(=O)(=O)N5CCCC5)cc4)o3)sc2c1 [HHI]
- HHI concentration sufficient to partly block HtrA-mediated E-Cadherin cleavage (HtrA): 10 µM
- HHI concentration that blocked cleavage completely (HtrA): 30 µM
- T4SS-dependent secretion of interleukin-8 (IL-8) of Hp-infected cells (interleukin-8 (IL-8)): unaffected
- Hp-induced loss of E-Cadherin-dependent intercellular adhesion (MCF-7): blocks; also recorded: efficiently blocked
- amount of total CagA (CagA; 100 µM HHI preincubation (Fig. 7A)): not altered
- injected phospho-CagA in Hp-infected cells (CagA; 100 µM HHI preincubation, 16 h and 24 h (Fig. 7A)): decreased
- secretion of HtrA into the infected cell supernatant (MKN-28 cells [1]; 16 and 24 h (Fig. 4D)): could be excluded
- Hp-induced ectopic E-Cadherin cleavage in infected MKN-28 cells (MKN-28 cells [1]; Hp infection 16 and 24 h (Fig. 4D)): clearly inhibited
- Hp-induced luciferase activity (TOP/FOP) (TCF/LEF1): unaffected
- MMP7-mediated E-Cadherin cleavage activity (MMP-7): did not affect
- Hp invasion through the intercellular space of confluent MKN-28 cells growing on filters (Hp [2]; 100 µM HHI, Hp 48 h, CFU counted, p = 0.01 (Fig. 6B)): significantly inhibited
- number of translocating bacteria in intercellular spaces (Hp [2]; MKN-28 monolayers, confocal microscopy, 48 h, 100 µM HHI (Fig. 6A)): greatly reduced
- E-Cadherin-mediated cell aggregation of HtrAwt-treated cells (MKN-28 cells [3]): did not form aggregates, unless HHI was also added
- Hp adherence and Hp viability (Hp [4]; 100 µM HHI (Fig. 11C)): could be excluded; also recorded: not affecting
- relative CFU colony forming units (CFU) (Hp [4]; 100 µM HHI, 16 h and 24 h infection, colonies counted after 72 h (Fig. 11C)): no significant difference
- loss of β-Catenin in the precipitated p120ctn immunocomplex upon Hp infection (MKN-28 cells [5]): not reverted
- co-localization of phospho-CagA with β1-integrin at the basolateral membrane (β1-integrin): efficiently prevented
